Columns and labels:
Assay in all cases: relative viability (nuclei count vs DMSO), 5 days (fraction); higher = more cells survive
[1] = tested on: BEN
Procedure, shortened: (§1)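 The day after seeding in 1536-well plates, lung cancer cell lines were treated by pin tool with a single drug, or with a fixed anchor-drug dose together with five library-drug doses (not always all listed) in √10 steps. After 5 days, a combined fix-and-stain solution (final 0.05% Triton X-100, 1% formaldehyde, 1 ug/ml Hoechst) was added. Nuclei counted on 4× images gave relative viability as treated counts over vehicle counts, reported as the median of duplicate plates.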

[2] = tested on: COR-L 105
Procedure, shortened: as §1

[3] = tested on: ChaGo-K-1
Procedure, shortened: as §1

[4] = tested on: EKVX
Procedure, shortened: as §1

[5] = tested on: EMC-BAC-2
Procedure, shortened: as §1

[6] = tested on: EPLC-272H
Procedure, shortened: as §1

[7] = tested on: HCC-78
Procedure, shortened: as §1

[8] = tested on: HCC-827
Procedure, shortened: as §1

[9] = tested on: LCLC-97TM1
Procedure, shortened: as §1

[10] = tested on: LK-2
Procedure, shortened: as §1

[11] = tested on: LOU-NH91
Procedure, shortened: as §1

[12] = tested on: LU99A
Procedure, shortened: as §1

[13] = tested on: NCI-H1650
Procedure, shortened: as §1

[14] = tested on: NCI-H1734
Procedure, shortened: as §1

[15] = tested on: NCI-H1944
Procedure, shortened: as §1

[16] = tested on: NCI-H2087
Procedure, shortened: as §1

[17] = tested on: NCI-H2126
Procedure, shortened: as §1

[18] = tested on: NCI-H358
Procedure, shortened: as §1

[19] = tested on: NCI-H727
Procedure, shortened: as §1

[20] = tested on: RERF-LC-KJ
Procedure, shortened: as §1

[21] = tested on: SK-MES-1
Procedure, shortened: as §1

[22] = tested on: SW 1573
Procedure, shortened: as §1

Structure (SMILES): O=C(O)CCCCC(CCSCc1ccccc1)SCc1ccccc1 (centres undefined) [CPI-613] + COc1cc2c(Oc3ccc(NC(=O)C4(C(=O)Nc5ccc(F)cc5)CC4)cc3F)ccnc2cc1OCCCN1CCOCC1 [Foretinib] (partner 0.25 µM)
- relative viability ([1]; first compound 5 µM): 0.728
- relative viability ([1]; first compound 15.81 µM): 0.443
- relative viability ([1]; first compound 50 µM): 0.602
- relative viability ([1]; first compound 158.11 µM): 0.499
- relative viability ([1]; first compound 500 µM): 0.508
- relative viability ([2]; first compound 5 µM): 1.11
- relative viability ([2]; first compound 15.81 µM): 1.03
- relative viability ([2]; first compound 50 µM): 1.02
- relative viability ([2]; first compound 158.11 µM): 0.508
- relative viability ([2]; first compound 500 µM): 0.16
- relative viability ([3]; first compound 5 µM): 0.818
- relative viability ([3]; first compound 15.81 µM): 0.901
- relative viability ([3]; first compound 50 µM): 0.929
- relative viability ([3]; first compound 158.11 µM): 0.245
- relative viability ([3]; first compound 500 µM): 0.105
- relative viability ([4]; first compound 5 µM): 0.83
- relative viability ([4]; first compound 15.81 µM): 0.754
- relative viability ([4]; first compound 50 µM): 0.983
- relative viability ([4]; first compound 158.11 µM): 0.399
- relative viability ([4]; first compound 500 µM): 0.531
- relative viability ([5]; first compound 5 µM): 1.01
- relative viability ([5]; first compound 15.81 µM): 0.993
- relative viability ([5]; first compound 50 µM): 0.967
- relative viability ([5]; first compound 158.11 µM): 0.367
- relative viability ([5]; first compound 500 µM): 0.0284
- relative viability ([6]; first compound 5 µM): 0.613
- relative viability ([6]; first compound 15.81 µM): 0.597
- relative viability ([6]; first compound 50 µM): 0.69
- relative viability ([6]; first compound 158.11 µM): 0.158
- relative viability ([6]; first compound 500 µM): 0.0081
- relative viability ([7]; first compound 5 µM): 0.497
- relative viability ([7]; first compound 15.81 µM): 0.554
- relative viability ([7]; first compound 50 µM): 0.545
- relative viability ([7]; first compound 158.11 µM): 0.52
- relative viability ([7]; first compound 500 µM): 0.473
- relative viability ([8]; first compound 5 µM): 1.04
- relative viability ([8]; first compound 15.81 µM): 1.02
- relative viability ([8]; first compound 50 µM): 1
- relative viability ([8]; first compound 158.11 µM): 0.416
- relative viability ([8]; first compound 500 µM): 0.312
- relative viability ([9]; first compound 5 µM): 0.95
- relative viability ([9]; first compound 15.81 µM): 0.935
- relative viability ([9]; first compound 50 µM): 0.926
- relative viability ([9]; first compound 158.11 µM): 0.324
- relative viability ([9]; first compound 500 µM): 0.0466
- relative viability ([10]; first compound 5 µM): 1.45
- relative viability ([10]; first compound 15.81 µM): 1.18
- relative viability ([10]; first compound 50 µM): 1.16
- relative viability ([10]; first compound 158.11 µM): 1.06
- relative viability ([10]; first compound 500 µM): 0.126
- relative viability ([11]; first compound 5 µM): 0.863
- relative viability ([11]; first compound 15.81 µM): 0.902
- relative viability ([11]; first compound 50 µM): 0.949
- relative viability ([11]; first compound 158.11 µM): 0.963
- relative viability ([11]; first compound 500 µM): 0.916
- relative viability ([12]; first compound 5 µM): 0.83
- relative viability ([12]; first compound 15.81 µM): 0.776
- relative viability ([12]; first compound 50 µM): 0.733
- relative viability ([12]; first compound 158.11 µM): 0.461
- relative viability ([12]; first compound 500 µM): 0.112
- relative viability ([13]; first compound 5 µM): 1.35
- relative viability ([13]; first compound 15.81 µM): 0.905
- relative viability ([13]; first compound 50 µM): 1.16
- relative viability ([13]; first compound 158.11 µM): 0.0583
- relative viability ([13]; first compound 500 µM): 0.0222
- relative viability ([14]; first compound 5 µM): 0.792
- relative viability ([14]; first compound 15.81 µM): 0.984
- relative viability ([14]; first compound 50 µM): 0.859
- relative viability ([14]; first compound 158.11 µM): 0.332
- relative viability ([14]; first compound 500 µM): 0.104
- relative viability ([15]; first compound 5 µM): 0.923
- relative viability ([15]; first compound 15.81 µM): 0.878
- relative viability ([15]; first compound 50 µM): 0.967
- relative viability ([15]; first compound 158.11 µM): 0.649
- relative viability ([15]; first compound 500 µM): 0.0567
- relative viability ([16]; first compound 5 µM): 1.09
- relative viability ([16]; first compound 15.81 µM): 1.11
- relative viability ([16]; first compound 50 µM): 1.05
- relative viability ([16]; first compound 158.11 µM): 0.0825
- relative viability ([16]; first compound 500 µM): 0.0183
- relative viability ([17]; first compound 5 µM): 1.12
- relative viability ([17]; first compound 15.81 µM): 1.09
- relative viability ([17]; first compound 50 µM): 1.09
- relative viability ([17]; first compound 158.11 µM): 1.14
- relative viability ([17]; first compound 500 µM): 1.18
- relative viability ([18]; first compound 15.81 µM): 0.648
- relative viability ([18]; first compound 50 µM): 0.713
- relative viability ([18]; first compound 158.11 µM): 0.369
- relative viability ([18]; first compound 500 µM): 0.0356
- relative viability ([19]; first compound 5 µM): 0.854
- relative viability ([19]; first compound 15.81 µM): 1.39
- relative viability ([19]; first compound 50 µM): 0.865
- relative viability ([19]; first compound 158.11 µM): 0.572
- relative viability ([19]; first compound 500 µM): 0.47
- relative viability ([20]; first compound 5 µM): 0.878
- relative viability ([20]; first compound 15.81 µM): 0.763
- relative viability ([20]; first compound 50 µM): 0.889
- relative viability ([20]; first compound 158.11 µM): 0.882
- relative viability ([20]; first compound 500 µM): 0.851
- relative viability ([21]; first compound 5 µM): 0.999
- relative viability ([21]; first compound 15.81 µM): 0.901
- relative viability ([21]; first compound 50 µM): 0.843
- relative viability ([21]; first compound 158.11 µM): 0.831
- relative viability ([21]; first compound 500 µM): 0.84
- relative viability ([22]; first compound 5 µM): 0.943
- relative viability ([22]; first compound 15.81 µM): 0.807
- relative viability ([22]; first compound 50 µM): 0.844
- relative viability ([22]; first compound 158.11 µM): 0.88
- relative viability ([22]; first compound 500 µM): 0.871
